Some test systems named below: RPMI-8226; OVCAR-4; UACC-62; SR; RXF 393; CAKI-1; HT-29; SF-268; SK-OV-3; SK-MEL-2; UO-31; MOLT-4; EKVX; CCRF-CEM; Hs-578T; OVCAR-3; SN12C; SNB-75; ACHN; A549.
Experiment in all cases: DTP human tumour cell line panel, 48 h

Molecules are shown by their SMILES.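 How tested: cells in 96-well plates exposed to compound for 48 hours at five concentrations. GI50 is the concentration that inhibits growth by half.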 Active and inactive are the calls of the source. No stated cut-off is given here; in the data, active = GI50 up to about 1.1 µM and inactive = higher.

For the molecule `Cc1[nH]c(=O)nc(S)c1C(=O)Nc1cccc2cc3ccccc3cc12`, the GI50 in the experiment on RPMI-8226, in the experiment on OVCAR-4, with UACC-62, with SR, in the experiment with RXF 393 and in the experiment on CAKI-1 was > 100 µM (inactive) in each case. The GI50 in the experiment with HT-29, in the experiment on SF-268, in the experiment on SK-OV-3, in the experiment with SK-MEL-2, in the experiment on UO-31 and in the experiment with MOLT-4 was > 100 µM (inactive) throughout. In addition, the GI50 in the experiment on EKVX, in the experiment on CCRF-CEM, in the experiment with Hs-578T, in the experiment with OVCAR-3, in the experiment on SN12C and with SNB-75 was > 100 µM (inactive) each time. In addition, the GI50 in the experiment on ACHN was > 100 µM (inactive).
For `COC(=O)Cc1cc2c(cc1C(=O)c1ccc(N)cc1)OCO2`, the GI50 was 1.5 µM (inactive) in the experiment on RPMI-8226; 11.2 µM (inactive) with OVCAR-4; 1.11 µM (active) in the experiment on UACC-62; 0.117 µM (active) in the experiment with SR; 4.34 µM (inactive) with RXF 393; 3.48 µM (inactive) with CAKI-1. In addition, the GI50 in the experiment with HT-29 is 1.09 µM (active); in the experiment on A549, 3.62 µM (inactive); with SF-268, 2.62 µM (inactive); in the experiment with SK-OV-3 it was 2.94 µM (inactive); in the experiment with SK-MEL-2, 0.964 µM (active); in the experiment on UO-31, 13.6 µM (inactive). Also, the GI50 with MOLT-4 was 1.63 µM (inactive); with EKVX it was 4.03 µM (inactive); in the experiment with CCRF-CEM it was 1.48 µM (inactive); with Hs-578T, 2.26 µM (inactive); in the experiment with OVCAR-3, 0.755 µM (active); in the experiment with SN12C, 5.96 µM (inactive). Further, the GI50 in the experiment on SNB-75 was 1.21 µM (inactive).
Turning to `Cc1cccc(NC(=S)NNC(=O)c2cc(-c3ccccc3)nc3ccccc23)c1`, the GI50 in the experiment on RPMI-8226 is 30.1 µM (inactive); in the experiment on OVCAR-4 it was 57.9 µM (inactive); in the experiment on UACC-62 it was 38.5 µM (inactive); in the experiment on SR, 17.9 µM (inactive); in the experiment on RXF 393 it was 25.4 µM (inactive); in the experiment on CAKI-1 it was 32.7 µM (inactive). Besides, the GI50 in the experiment on HT-29 is 34.7 µM (inactive); with A549 it was 25.4 µM (inactive); in the experiment on SF-268 it was 42 µM (inactive); in the experiment on SK-OV-3, 25.6 µM (inactive); with SK-MEL-2 it was 21.8 µM (inactive); in the experiment on UO-31, 23.1 µM (inactive). Also, the GI50 in the experiment on MOLT-4 is 27.5 µM (inactive); with CCRF-CEM it was 12.7 µM (inactive); with Hs-578T, 37 µM (inactive); in the experiment with OVCAR-3 it was 26.8 µM (inactive); with SN12C it was 40.1 µM (inactive); in the experiment with SNB-75, 36.6 µM (inactive). Moreover, the GI50 with ACHN is 36.1 µM (inactive).
With `Nc1nc2c(c(-c3ccccc3Cl)n1)COC/C2=C\c1ccccc1Cl`, the GI50 with RPMI-8226 was 10.6 µM (inactive); in the experiment with OVCAR-4, 19.7 µM (inactive); in the experiment on UACC-62, 16 µM (inactive); in the experiment on SR it was 5.16 µM (inactive); with RXF 393, 16 µM (inactive); in the experiment with CAKI-1 it was 16.3 µM (inactive). Besides, the GI50 in the experiment on SF-268 was 16.9 µM (inactive); in the experiment on SK-OV-3, 16.1 µM (inactive); in the experiment on SK-MEL-2 it was 16.9 µM (inactive); in the experiment on UO-31 it was 17.1 µM (inactive); with MOLT-4 it was 12.9 µM (inactive); in the experiment on EKVX, 18.3 µM (inactive). The GI50 in the experiment with CCRF-CEM is 11.7 µM (inactive); in the experiment on Hs-578T it was 21.8 µM (inactive); with OVCAR-3, 17.4 µM (inactive); in the experiment on SN12C, 16.6 µM (inactive); with SNB-75 it was 15.9 µM (inactive); in the experiment with ACHN, 17.9 µM (inactive).
Consider `C/C(=N\N)C(CN1CCOCC1)C(c1ccccc1)c1c(O)c2ccccc2oc1=O` (centres undefined), for which the GI50 in the experiment on RPMI-8226 was > 67.1 µM (inactive); in the experiment with OVCAR-4, 77.3 µM (inactive); with SR it was 46 µM (inactive); with RXF 393, 3.38 µM (inactive); in the experiment on CAKI-1, > 100 µM (inactive); in the experiment on HT-29 it was > 100 µM (inactive). Moreover, the GI50 with A549 is > 75.2 µM (inactive); with SF-268, > 100 µM (inactive); in the experiment on SK-OV-3, > 100 µM (inactive); in the experiment with SK-MEL-2, > 100 µM (inactive); in the experiment with UO-31, 44.3 µM (inactive); in the experiment on MOLT-4, 40.5 µM (inactive). For the same molecule, the GI50 in the experiment on EKVX is 83.6 µM (inactive); with CCRF-CEM it was 23.3 µM (inactive); in the experiment on Hs-578T, > 100 µM (inactive); in the experiment on OVCAR-3 it was > 61.4 µM (inactive); with SN12C, > 100 µM (inactive); with SNB-75, 42.9 µM (inactive). Moreover, the GI50 in the experiment with ACHN is > 100 µM (inactive).
For `CON(C(=O)OC(C)(C)C)c1ccccc1`, the GI50 in the experiment on RPMI-8226, in the experiment with OVCAR-4, in the experiment with UACC-62, in the experiment on SR, in the experiment on RXF 393 and in the experiment with CAKI-1 was > 100 µM (inactive) in each case. In addition, the GI50 with HT-29, in the experiment on A549, in the experiment on SF-268, in the experiment on SK-OV-3, in the experiment with SK-MEL-2 and with UO-31 was > 100 µM (inactive) each time. Also, the GI50 in the experiment with MOLT-4, with EKVX, in the experiment with CCRF-CEM, in the experiment on Hs-578T, in the experiment on OVCAR-3 and with SNB-75 was > 100 µM (inactive) throughout. The GI50 in the experiment on ACHN is > 100 µM (inactive).
Regarding `Cc1c(-c2ccccc2)c(C#N)c2nnn(-c3ccc([N+](=O)[O-])cc3)c(=O)n12`, the GI50 in the experiment with RPMI-8226 is 20.7 µM (inactive); in the experiment on OVCAR-4, 10.4 µM (inactive); with UACC-62, 37.1 µM (inactive); in the experiment on SR it was 7.31 µM (inactive); in the experiment on RXF 393, 17.4 µM (inactive); in the experiment with CAKI-1, 29.9 µM (inactive). The GI50 was 8.99 µM (inactive) with HT-29; 12.7 µM (inactive) in the experiment with SF-268; 23.4 µM (inactive) in the experiment with SK-OV-3; 8.91 µM (inactive) with SK-MEL-2; 6.32 µM (inactive) in the experiment on EKVX; 8.43 µM (inactive) in the experiment on CCRF-CEM. Further, the GI50 in the experiment on Hs-578T is 14.1 µM (inactive); in the experiment on OVCAR-3 it was 15.3 µM (inactive); with SN12C it was 22.4 µM (inactive); with SNB-75, 14.5 µM (inactive); in the experiment with ACHN, 22.2 µM (inactive).
Regarding `Cn1c(-c2ccccc2)c2cc3nc4ccccc4nc3cc2c1-c1ccccc1`, the GI50 is 12.1 µM (inactive) in the experiment on RPMI-8226; 30 µM (inactive) with OVCAR-4; 11.7 µM (inactive) with UACC-62; 4.56 µM (inactive) in the experiment on SR; 22.3 µM (inactive) in the experiment with RXF 393; 43.3 µM (inactive) in the experiment with CAKI-1. The GI50 in the experiment with HT-29 was 17.8 µM (inactive); in the experiment with A549, 3.94 µM (inactive); in the experiment on SF-268, 19 µM (inactive); with SK-OV-3, 21.6 µM (inactive); in the experiment on SK-MEL-2, 17.7 µM (inactive); in the experiment on UO-31, 22.5 µM (inactive). The GI50 in the experiment with MOLT-4 is 21 µM (inactive); in the experiment with EKVX it was 31 µM (inactive); in the experiment with Hs-578T, 10.6 µM (inactive); in the experiment with OVCAR-3, 20.4 µM (inactive); in the experiment with SN12C, 13.3 µM (inactive); with SNB-75, 26.5 µM (inactive). The GI50 in the experiment on ACHN is 17.7 µM (inactive).

The values above are taken from ChEMBL document CHEMBL1201862, “PubChem BioAssay data set” (2004).
